Measured values as given in patent publication US12016942B2, “Potassium hydrogen salts of alkylhydroxamates and compositions comprising the same” (Inolex Investment Corporation, priority 2021, dated 2024).

Columns and labels:
[1] = cited from earlier work
[2] = Titration of aqueous solutions with 0.1 N HCl; format: physicochemical; conditions: for titration endpoint: 0.24 wt % aqueous solution, 0.1 N HCl
Method: Aqueous solutions (0.24 wt %) of KH(CH)2 and NaCH were prepared by dissolving the respective compounds of Example 1 and Comparative Example 1 in deionized water. The solutions were titrated with 0.1 N HCl solution using a Metrohm autotitrator.

[3] = Solution pH of alkali metal salts of caprylhydroxamic acid in deionized water; format: physicochemical; conditions: for Solution pH Difference: NaCH minus KH(CH)2
Text: In some cases, the pH adjuster brings the aqueous formulation including potassium hydrogen alkylhydroxamate salts to a lower pH value than if no pH adjuster were employed in the compound. The amount of pH adjuster will depend upon the concentration of the potassium hydrogen alkylhydroxamate salts in aqueous solution. […] […] Target pH levels for the formulations as disclosed herein, e.g., for personal care products and the like, are less than pH 8. Minimal additions of the pH adjuster are required when using potassium hydrogen alkylhydroxamate salt compounds as described herein to achieve the desired pH less than 8.

| Compound | pKa [1] | titration endpoint [2] [mL] | Solution pH ([3]; 0.15 % in deionized water) | Solution pH ([3]; 0.25 % in deionized water) | Solution pH ([3]; 0.50 % in deionized water) | pH value in a 1% aqueous solution [3] | Solution pH ([3]; 1.00 % in deionized water) | less acid required to neutralize vs NaCH solution ([2]; identical concentration 0.24 wt %) | Solution pH Difference ([3]; 0.15 %) | Solution pH Difference ([3]; 0.25 %) | Solution pH Difference ([3]; 0.50 %) | Solution pH Difference ([3]; 1.00 %) |
| --- | --- | --- | --- | --- | --- | --- | --- | --- | --- | --- | --- | --- |
| CCCCCCCC(=O)NO [CHA, caprylhydroxamic acid] | ≈ 9.4 |  |  |  |  |  |  |  |  |  |  |  |
| CCCCCCCC(=O)N[O-].O.[Na+] [Comparative Example 1, sodium octanohydroxamate monohydrate, reference compound] |  | 18.4 | 10.26 | 10.85 | 10.95 | 11.0-11.5 | 11.10 |  |  |  |  |  |
| CCCCCCCC(=O)NO.[K] [Example 1, potassium hydrogen caprylhydroxamate] |  | 10.7 | 9.35 | 9.64 | 9.60 | 9.0-10.0 | 9.58 | approximately 42% | 0.91 | 1.21 | 1.35 | 1.52 |
